Literature values in patent US20060127478A1, “Oral dosage formulation” (priority 2003, published 2006).
Like-named read-outs stand apart in the source and are kept apart here.

What was measured:
[1] = in vivo
[2] = Taha et al., NEJM 1996
[3] = test system: gastric secretion; conditions: following oral administration

| SMILES | incidence of adverse effects (abdominal pain, diarrhea, nausea, flatulence) [1] | frequency of gastric and duodenal ulcers associated with non-selective NSAIDs (diclofenac, ibuprofen, naproxen, ketoprofen) [2] | nocturnal intra-gastric pH, mean value (nocturnal dose of 20 mg) | nocturnal intra-gastric pH, mean value (nocturnal dose of 40 mg) | basal daytime inter-digestive pH (three and eight hours following administration after breakfast of 20 or 40 mg) | time at which basal, nocturnal, food and pentagastrin stimulated gastric secretion is inhibited [3] | time to maximum effect on gastric secretion ([3]; maximum effect dose dependent) |
| --- | --- | --- | --- | --- | --- | --- | --- |
| CCCCC(C)(O)C/C=C/[C@H]1[C@H](O)CC(=O)[C@@H]1CCCCCCC(=O)OC (mixture of isomers) [Misoprostol] | high incidence | – | – | – | – | – | – |
| NC(N)=Nc1nc(CSCCC(N)=NS(N)(=O)=O)cs1 [Famotidine] | – | reduce the frequency | 5.0 | 6.4 | about 5 | one | one to three |
